{"source": "patent US6166049A", "about": "“Use of an antagonist of PPARα and PPARγ for the treatment of syndrome X” (SmithKline Beecham P.L.C., priority 1996, dated 2000)", "key": {"C57 Bl/KsJ db/db mouse [1]": {"tested_on": "C57 Bl/KsJ db/db mouse", "test": "Serum lipids in the genetically diabetic C57 Bl/KsJ db/db mouse", "type": "in vivo", "conditions": "0.3 umol/kg body wt, dietary admixture, after 14 days, *** p < 0.001, mean ± SD", "description": "(§1) 2) Determination of Compound Efficacy on Blood Glucose and Plasma Lipids in the C57 Bl/KsJ db/db Mouse\n(§2) This is paralleled by glycosuria and polyuria with a compensatory increase in water intake. Circulating serum triglycerides and free fatty acids are also elevated.\n(§3) Compounds are administered by dietary admixture (powdered RM3 diet) for 14 days and blood glucose measured in samples taken from the tail vein of conscious non-fasted mice at appropriate intervals during the treatment period. After the 14 day treatment period, mice are killed by cervical dislocation and blood obtained from the severed jugular veins. Triglyceride and non-esterified fatty acids are measured in samples of serum obtained by centrifugation."}, "C57 Bl/KsJ db/db mouse [2]": {"tested_on": "C57 Bl/KsJ db/db mouse", "test": "Blood glucose in the C57 Bl/KsJ db/db mouse", "type": "in vivo", "conditions": "mean ± SD, n = 9-10; for Blood glucose, pre-dose: treated group before dosing (baseline)", "description": "as §1, §2, §3"}, "human PPARγ": {"target": "T1, human PPARγ (Homo sapiens, UniProt P37231)", "T1 construct": "expressed in transfected cells", "T1 sequence (P37231 173-476 isoform P37231-2)": "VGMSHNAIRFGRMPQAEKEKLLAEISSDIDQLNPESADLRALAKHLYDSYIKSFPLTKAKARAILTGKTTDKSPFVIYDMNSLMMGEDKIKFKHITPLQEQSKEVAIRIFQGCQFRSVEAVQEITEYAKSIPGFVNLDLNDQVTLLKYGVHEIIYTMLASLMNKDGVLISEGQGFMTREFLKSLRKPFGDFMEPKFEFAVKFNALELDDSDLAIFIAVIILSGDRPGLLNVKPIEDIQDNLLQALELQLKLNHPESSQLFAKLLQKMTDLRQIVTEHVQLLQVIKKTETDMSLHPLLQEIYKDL", "test": "hPPARγ agonist activity, transactivation reporter gene assay", "type": "cell-based", "conditions": "read-out: EC50 for activation of human PPARγ", "from_the_text": "(§4) PPARα and γ agonist activity may be assessed by use of the methodology, or similar methodology, to that disclosed by Lehmann et al: Journal of Biological Chem., 270, 12953-12956 (1995).\nIn one aspect PPARγ agonist compounds are those which stimulate a PPARγ chimeric receptor containing the PPAR gamma ligand binding site linked to a suitable reporter gene construct such as luciferase or chloramphenicol acetyltransferase (CAT). This activity can be identified by using the methods of Lehmann et al. J Biol. Chem., ibid.\n(b) PPARγ agonist activity by detecting stimulation of a PPARγ chimeric receptor containing the PPAR gamma ligand binding site linked to a suitable reporter gene construct such as luciferase or chloramphenicol acetyltransferase (CAT).\nA suitable PPARγ chimeric receptor comprises the amino acids of the ligand binding domain, for example amino acids 173-476, of the human PPARγ receptor fused to amino acids 1-147 (DNA binding domain) of the gal 4 yeast transcription factor.\n(§5) A suitable reporter gene construct is a luciferase or chloramphenicol acetyltransferase (CAT).\nA suitable luciferase reporter gene construct contains gal 4 DNA binding elements in HEK-293 cells. […]\n(§6) Compound agonist effects at human PPARα and PPARγ were assessed using a transactivation reporter gene assay, based on that described by Lehman et al. (1995) J Biol Chem 270, 12953-12956."}, "human PPARα": {"target": "T2, human PPARα (Homo sapiens, UniProt Q07869)", "T2 construct": "expressed in transfected cells", "T2 sequence (Q07869 239-466 limits assumed)": "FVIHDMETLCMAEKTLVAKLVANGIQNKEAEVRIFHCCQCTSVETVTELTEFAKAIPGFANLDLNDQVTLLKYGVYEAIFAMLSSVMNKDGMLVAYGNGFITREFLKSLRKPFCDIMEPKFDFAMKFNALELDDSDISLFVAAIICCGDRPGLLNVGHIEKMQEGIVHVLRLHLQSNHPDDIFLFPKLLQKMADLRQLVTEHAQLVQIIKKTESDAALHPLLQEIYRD", "test": "hPPARα agonist activity, transactivation reporter gene assay", "type": "cell-based", "conditions": "read-out: EC50 for activation of human PPARα", "from_the_text": "as §4\nIn one aspect PPARα agonist compounds are those which stimulate a PPAR alpha chimeric receptor consisting of the PPAR alpha ligand binding site linked to a suitable reporter gene construct such as luciferase or chloramphenicol acetyltransferase (CAT). This activity can be identified by using the methods outlined by Lehmann et al., ibid.\n(a) PPARα agonist activity by detecting stimulation of a PPAR alpha chimeric receptor consisting of the PPAR alpha ligand binding site linked to a suitable reporter gene construct; and\nA suitable PPARα chimeric receptor comprises the amino acids of the ligand binding domain, for example amino acids 281-468, of the human PPARα, fused to amino acids 1-147 (DNA binding domain) of the gal 4 yeast transcription factor.\nas §5\nA suitable luciferase reporter gene construct contains gal 4 DNA binding elements in HEK-293 cells.\n1) Determination of hPPARα and hPPAR-γ Agonist Activity\nas §6"}}}
{"smiles": "CN(CCOc1ccc(C[C@H](OCC(F)(F)F)C(=O)O)cc1)c1nc2ccccc2o1", "note": "[(S)-3-[4-[2-[N-(2-benzoxazolyl)-N-methylamino]ethoxy]phenyl]-2-(2,2,2-trifluoroethoxy)propanoic acid]", "values": [{"measurement": "Serum non-esterified fatty acids", "setting": "C57 Bl/KsJ db/db mouse [1]; control 2.58 ± 0.45", "result": "1.28 ± 0.15", "unit": "mmol/L"}, {"measurement": "Serum triglycerides", "setting": "C57 Bl/KsJ db/db mouse [1]; control 3.78 ± 1.34", "result": "2.58 ± 0.45", "unit": "mmol/L"}, {"measurement": "Blood glucose, post dose (13 days)", "setting": "C57 Bl/KsJ db/db mouse [2]; EXPT I, dietary admixture, 13 days, control 34.0 ± 7.9, *** p < 0.001", "result": "11.0 ± 3.6", "unit": "mmol/L"}, {"measurement": "Blood glucose, pre-dose", "setting": "C57 Bl/KsJ db/db mouse [2]; EXPT I, control 15.5 ± 3.7", "result": "15.6 ± 4.0", "unit": "mmol/L"}, {"measurement": "Blood glucose, Day 1", "setting": "C57 Bl/KsJ db/db mouse [2]; EXPT II, dietary admixture, Day 1, control 17.2 ± 3.7", "result": "14.1 ± 3.7", "unit": "mmo/l"}, {"measurement": "Blood glucose, Day 2", "setting": "C57 Bl/KsJ db/db mouse [2]; EXPT II, dietary admixture, Day 2, control 19.9 ± 2.7, ** p < 0.01", "result": "15.0 ± 3.4", "unit": "mmo/l"}, {"measurement": "Blood glucose, Day 3", "setting": "C57 Bl/KsJ db/db mouse [2]; EXPT II, dietary admixture, Day 3, control 20.2 ± 3.9, *** p < 0.001", "result": "12.2 ± 5.1", "unit": "mmo/l"}, {"measurement": "Blood glucose, Day 5", "setting": "C57 Bl/KsJ db/db mouse [2]; EXPT II, dietary admixture, Day 5, control 21.2 ± 1.9, *** p < 0.001", "result": "11.3 ± 3.6", "unit": "mmo/l"}, {"measurement": "Blood glucose, Day 7", "setting": "C57 Bl/KsJ db/db mouse [2]; EXPT II, dietary admixture, Day 7, control 23.4 ± 2.0, *** p < 0.001", "result": "11.7 ± 3.7", "unit": "mmo/l"}, {"measurement": "Blood glucose, pre-dose", "setting": "C57 Bl/KsJ db/db mouse [2]; EXPT II, control 16.5 ± 2.9", "result": "16.2 ± 4.3", "unit": "mmo/l"}, {"measurement": "EC50", "setting": "human PPARγ", "result": 0.07, "unit": "µM"}, {"measurement": "EC50", "setting": "human PPARα", "result": 2.5, "unit": "µM"}]}
